# Tests used:
# Assay type in all cases: in vivo, Female CD2Fl mice
# IP L1210 = test: Activity against IP-implanted L1210 leukemia sensitive to cisplatin, 60 day test (Table 4)
# Experimental: (§1) Biological properties of the compounds of the present invention were determined following the protocol described in Cancer Chemotherapy Reports, Vol. 3, No. 3, 1972 which report is incorporated herein by reference.
# (§2) Other known mechanisms of resistance for other classes of agents, such as gene amplification or target enzyme change or amplication, also need to be explored. The experiments summarized in Table 3 were conducted at the same time against both sublines using the same drug preparations. […] These experiments were repeated in a second laboratory as documented in Table 4. However, in these experiments the animals were held for 60 rather than 30 days to evaluate whether or not long-term survivors are produced after drug treatment in a more challenging setting.
# This experiment (A8-00005 3LE31) was conducted at the Southern Research Institute, Birmingham, Ala. under the supervision of Dr. Daniel Griswold. The protocols were the same as those published previously (Geran et al., Cancer Chemotherapy Reports 3: No. 2, 1972 [Attachment 11]). 10^5 cells were implanted intraperitoneally in CD2Fl male mice on Day 0. Drug treatments were given intraperitoneally as single injections at the doses indicated on Days 1, 5 and 9 after tumor implantation. The diluent was saline except for NSC-271674 where 5% sodium bicarbonate was used. All drugs were prepared fresh on the day of injection, and all were administered in solution. Median survival times for both control and drug-treated mice were determined and expressed as a percentage (% T/C). Body weights were determined on Day 5 and expressed as a weight difference (body weight of the drug-treated animals minus that of the control animals in grams) (T-C). The diluent control animals lived a median of 8.4 days and gained 1.9 grams by Day 5 in this experiment. All animals, including Day 30 survivors, were used in the calculation of median survival times. The log10 change in tumor burden refers to the net log change in viable tumor cell population at the end of therapy (Rx) as compared to the start of therapy; e.g., a […] means that there was a […] and a 3 log change means there was a 1000-fold increase in tumor burden at the end of therapy. The tumor burden at the start of therapy was about 6.1×10^5 cells in this experiment.
# (§3) These experiments (23-00081 3LE31 and 23-00003 3DP3l) were conducted concurrently at the Mason Research Institute, Worcester, MA under the supervision of Dr. William Cobb. See Table 4 for experimental details. The diluent control animals bearing L1210 leukemia lived a median of 8.3 days and gained 1.6 grams by Day 5. […] Female CD2Fl mice were used for these experiments.
# IP L1210/Cisplatin [1] = test: Activity against IP-implanted L1210/Cisplatin leukemia resistant to cisplatin, 30 day test (Table 3)
# Experimental: as §1, §2
# This experiment (A8-00005 3LE31) was conducted at the Southern Research Institute, Birmingham, Ala. under the supervision of Dr. Daniel Griswold. The protocols were the same as those published previously (Geran et al., Cancer Chemotherapy Reports 3: No. 2, 1972 [Attachment 11]). 10^5 cells were implanted intraperitoneally in CD2Fl male mice on Day 0. Drug treatments were given intraperitoneally as single injections at the doses indicated on Days 1, 5 and 9 after tumor implantation. The diluent was saline except for NSC-271674 where 5% sodium bicarbonate was used. All drugs were prepared fresh on the day of injection, and all were administered in solution. Median survival times for both control and drug-treated mice were determined and expressed as a percentage (% T/C). Body weights were determined on Day 5 and expressed as a weight difference (body weight of the drug-treated animals minus that of the control animals in grams) (T-C). The diluent control animals lived a median of 8.4 days and gained 1.9 grams by Day 5 in this experiment. All animals, including Day 30 survivors, were used in the calculation of median survival times. The log10 change in tumor burden refers to the net log change in viable tumor cell population at the end of therapy (Rx) as compared to the start of therapy; e.g., a […] means that there was a […] and a 3 log change means there was a 1000-fold increase in tumor burden at the end of therapy. The tumor burden at the start of therapy was about 6.1×10^5 cells in this experiment. […]
# IP L1210/Cisplatin [2] = test: Activity against IP-implanted L1210/Cisplatin leukemia resistant to cisplatin, 60 day test (Table 4)
# Experimental: as §1
# Other known mechanisms of resistance for other classes of agents, such as gene amplification or target enzyme change or amplication, also need to be explored. The experiments summarized in Table 3 were conducted at the same time against both sublines using the same drug preparations. […] These experiments were repeated in a second laboratory as documented in Table 4. However, in these experiments the animals were held for 60 rather than 30 days to evaluate whether or not long-term survivors are produced after drug treatment in a more challenging setting. […]
# as §3
molecule,measurement,setting,value
"Tetrachloro-cis-1,2-cyclohexanediamine platinum (IV)",60 Day Survivors/Total,IP L1210; 2 mg/kg/dose,0/10
same,Body Weight Difference,IP L1210; 2 mg/kg/dose,-0.9 Grams
same,Median % T/C,IP L1210; 2 mg/kg/dose,143%
same,60 Day Survivors/Total,IP L1210; 4 mg/kg/dose,2/10
same,Body Weight Difference,IP L1210; 4 mg/kg/dose,-0.9 Grams
same,Median % T/C,IP L1210; 4 mg/kg/dose,250%
same,60 Day Survivors/Total,IP L1210; 8 mg/kg/dose,2/10
same,Median % T/C,IP L1210; 8 mg/kg/dose,313%
same,60 Day Survivors/Total,IP L1210; 16 mg/kg/dose,0/10
same,Body Weight Difference,IP L1210; 16 mg/kg/dose,-5.6 Grams
same,Median % T/C,IP L1210; 16 mg/kg/dose,98%
same,60 Day Survivors/Total,IP L1210; 32 mg/kg/dose,0/10
same,Body Weight Difference,IP L1210; 32 mg/kg/dose,-5.6 Grams
same,Median % T/C,IP L1210; 32 mg/kg/dose,Toxic
same,30 Day Survivors/Total,IP L1210/Cisplatin [1]; 1 mg/kg/dose,0/6
same,Approx. Log10 Change in Tumor Burden at End of RX,IP L1210/Cisplatin [1]; 1 mg/kg/dose,~3.0 log10
same,Median % T/C,IP L1210/Cisplatin [1]; 1 mg/kg/dose,105%
same,30 Day Survivors/Total,IP L1210/Cisplatin [1]; 2 mg/kg/dose,0/6
same,Approx. Log10 Change in Tumor Burden at End of RX,IP L1210/Cisplatin [1]; 2 mg/kg/dose,~2.9 log10
same,Median % T/C,IP L1210/Cisplatin [1]; 2 mg/kg/dose,110%
same,30 Day Survivors/Total,IP L1210/Cisplatin [1]; 4 mg/kg/dose,0/6
same,Approx. Log10 Change in Tumor Burden at End of RX,IP L1210/Cisplatin [1]; 4 mg/kg/dose,~2.9 log10
same,Median % T/C,IP L1210/Cisplatin [1]; 4 mg/kg/dose,111%
same,30 Day Survivors/Total,IP L1210/Cisplatin [1]; 8 mg/kg/dose,0/6
same,Approx. Log10 Change in Tumor Burden at End of RX,IP L1210/Cisplatin [1]; 8 mg/kg/dose,~2.4 log10
same,Median % T/C,IP L1210/Cisplatin [1]; 8 mg/kg/dose,138%
same,30 Day Survivors/Total,IP L1210/Cisplatin [1]; 16 mg/kg/dose,3/6
same,Approx. Log10 Change in Tumor Burden at End of RX,IP L1210/Cisplatin [1]; 16 mg/kg/dose,~-5.9 log10
same,Median % T/C,IP L1210/Cisplatin [1]; 16 mg/kg/dose,322%
same,60 Day Survivors/Total,IP L1210/Cisplatin [2]; 2 mg/kg/dose,0/10
same,Body Weight Difference,IP L1210/Cisplatin [2]; 2 mg/kg/dose,-0.3 Grams
same,Median % T/C,IP L1210/Cisplatin [2]; 2 mg/kg/dose,121%
same,60 Day Survivors/Total,IP L1210/Cisplatin [2]; 4 mg/kg/dose,0/10
same,Body Weight Difference,IP L1210/Cisplatin [2]; 4 mg/kg/dose,0.0 Grams
same,Median % T/C,IP L1210/Cisplatin [2]; 4 mg/kg/dose,130%
same,60 Day Survivors/Total,IP L1210/Cisplatin [2]; 8 mg/kg/dose,1/10
same,Body Weight Difference,IP L1210/Cisplatin [2]; 8 mg/kg/dose,-2.7 Grams
same,Median % T/C,IP L1210/Cisplatin [2]; 8 mg/kg/dose,191%
same,60 Day Survivors/Total,IP L1210/Cisplatin [2]; 16 mg/kg/dose,0/10
same,Body Weight Difference,IP L1210/Cisplatin [2]; 16 mg/kg/dose,-5.4 Grams
same,Median % T/C,IP L1210/Cisplatin [2]; 16 mg/kg/dose,Toxic
same,60 Day Survivors/Total,IP L1210/Cisplatin [2]; 32 mg/kg/dose,0/10
same,Body Weight Difference,IP L1210/Cisplatin [2]; 32 mg/kg/dose,-5.1 Grams
same,Median % T/C,IP L1210/Cisplatin [2]; 32 mg/kg/dose,Toxic
same,60-day (long term) survivors,"IP L1210/Cisplatin [2]; L1210/cisplatin, tolerated doses",only one long term survivor
"[Cl][Pt-2]1([Cl])([Cl])([Cl])[NH2+][C@@H]2CCCC[C@H]2[NH2+]1 [trans (l), (1R,2R)-Tetrachloro-trans-1,2-cyclohexanediammine platinum (IV)]",60 Day Survivors/Total,IP L1210; 1 mg/kg/dose,0/10
same,Body Weight Difference,IP L1210; 1 mg/kg/dose,-0.4 Grams
same,Median % T/C,IP L1210; 1 mg/kg/dose,146%
same,60 Day Survivors/Total,IP L1210; 2 mg/kg/dose,2/10
same,Body Weight Difference,IP L1210; 2 mg/kg/dose,-0.8 Grams
same,Median % T/C,IP L1210; 2 mg/kg/dose,216%
same,60 Day Survivors/Total,IP L1210; 4 mg/kg/dose,0/10
same,Body Weight Difference,IP L1210; 4 mg/kg/dose,-2.2 Grams
same,Median % T/C,IP L1210; 4 mg/kg/dose,208%
same,60 Day Survivors/Total,IP L1210; 8 mg/kg/dose,1/10
same,Body Weight Difference,IP L1210; 8 mg/kg/dose,-3.7 Grams
same,Median % T/C,IP L1210; 8 mg/kg/dose,228%
same,60 Day Survivors/Total,IP L1210; 16 mg/kg/dose,0/10
same,Body Weight Difference,IP L1210; 16 mg/kg/dose,-5.9 Grams
same,Median % T/C,IP L1210; 16 mg/kg/dose,Toxic
same,30 Day Survivors/Total,IP L1210/Cisplatin [1]; 1 mg/kg/dose,0/6
same,Approx. Log10 Change in Tumor Burden at End of RX,IP L1210/Cisplatin [1]; 1 mg/kg/dose,~2.8 log10
same,Median % T/C,IP L1210/Cisplatin [1]; 1 mg/kg/dose,118%
same,30 Day Survivors/Total,IP L1210/Cisplatin [1]; 2 mg/kg/dose,0/6
same,Approx. Log10 Change in Tumor Burden at End of RX,IP L1210/Cisplatin [1]; 2 mg/kg/dose,~2.5 log10
same,Median % T/C,IP L1210/Cisplatin [1]; 2 mg/kg/dose,137%
same,30 Day Survivors/Total,IP L1210/Cisplatin [1]; 4 mg/kg/dose,5/6
same,Approx. Log10 Change in Tumor Burden at End of RX,IP L1210/Cisplatin [1]; 4 mg/kg/dose,~-5.9 log10
same,Median % T/C,IP L1210/Cisplatin [1]; 4 mg/kg/dose,322%
same,30 Day Survivors/Total,IP L1210/Cisplatin [1]; 8 mg/kg/dose,5/6
same,Approx. Log10 Change in Tumor Burden at End of RX,IP L1210/Cisplatin [1]; 8 mg/kg/dose,~-5.9 log10
same,Median % T/C,IP L1210/Cisplatin [1]; 8 mg/kg/dose,322%
same,30 Day Survivors/Total,IP L1210/Cisplatin [1]; 16 mg/kg/dose,0/6
same,Approx. Log10 Change in Tumor Burden at End of RX,IP L1210/Cisplatin [1]; 16 mg/kg/dose,~3.1 log10
same,Median % T/C,IP L1210/Cisplatin [1]; 16 mg/kg/dose,89%
same,60 Day Survivors/Total,IP L1210/Cisplatin [2]; 1 mg/kg/dose,0/10
same,Body Weight Difference,IP L1210/Cisplatin [2]; 1 mg/kg/dose,-1.1 Grams
same,Median % T/C,IP L1210/Cisplatin [2]; 1 mg/kg/dose,132%
same,60 Day Survivors/Total,IP L1210/Cisplatin [2]; 2 mg/kg/dose,4/10
same,Body Weight Difference,IP L1210/Cisplatin [2]; 2 mg/kg/dose,-0.8 Grams
same,Median % T/C,IP L1210/Cisplatin [2]; 2 mg/kg/dose,239%
same,60 Day Survivors/Total,IP L1210/Cisplatin [2]; 4 mg/kg/dose,3/8
same,Body Weight Difference,IP L1210/Cisplatin [2]; 4 mg/kg/dose,-1.7 Grams
same,Median % T/C,IP L1210/Cisplatin [2]; 4 mg/kg/dose,376%
same,60 Day Survivors/Total,IP L1210/Cisplatin [2]; 8 mg/kg/dose,0/10
same,Body Weight Difference,IP L1210/Cisplatin [2]; 8 mg/kg/dose,-3.5 Grams
same,Median % T/C,IP L1210/Cisplatin [2]; 8 mg/kg/dose,133%
same,60 Day Survivors/Total,IP L1210/Cisplatin [2]; 16 mg/kg/dose,0/10
same,Body Weight Difference,IP L1210/Cisplatin [2]; 16 mg/kg/dose,-7.3 Grams
same,Median % T/C,IP L1210/Cisplatin [2]; 16 mg/kg/dose,Toxic
